The values that follow come from patent publication US20160279252A1, “COMPOSITIONS FOR INDUCING IMMUNE TOLERANCE TO COAGULATION FACTOR PROTEINS” (BAYER HEALTHCARE LLC, priority 2013, published 2016).

One assay has as its system C57BL/6J mice. The assay is described as follows: Tolerization of C57BL/6J mice to HEL (anti-HEL titers). Type of assay: in vivo, mouse. Conditions: for effect of ligand amount on liposomes on antibody production: HEL liposomes with varying ligand, day 44 after two challenges.
The target in another assay is human CD22 (Homo sapiens, UniProt P20273). Conditions: cited from earlier work.
For another assay, the system named is FVIII deficient plasma. The assay is described as follows: Coagulation assay (one-stage aPTT clotting FVIII:C). Type of assay: biochemical. Conditions: PEGylated with PEGs 6 kD to 64 kD, assayed without purification. Here is the method:
COAGULATION ASSAY. The clotting FVIII:C test method is a one-stage assay based upon the activated partial thromboplastin time (aPTT). FVIII acts as a cofactor in the presence of Factor IXa, calcium, and phospholipid in the enzymatic conversion of Factor X to Xa. In this assay, the diluted test samples are incubated at 37° C. with a mixture of FVIII deficient plasma substrate and aPTT reagent. Calcium chloride is added to the incubated mixture and clotting is initiated. An inverse relationship exists between the time (seconds) it takes for a clot to form and logarithm of the concentration of FVIII:C. Activity levels for unknown samples are interpolated by comparing the clotting times of various dilutions of test material with a curve constructed from a series of dilutions of standard material of known activity and are reported in International Units per mL (IU/mL).
EFFECT OF PEG SIZE ON ACTIVITY. To test whether PEG sizes have an effect on both coagulation and chromogenic activities of FVIII upon PEGylation, purified full-length FVIII, PEG2, PEG6, and PEG14 were reduced by TCEP followed by reductant removal and reaction with a buffer control or PEGs ranging from 6 kD to 64 kD. The resulting PEGylated FVIII was directly assayed without removal of excess PEG or unPEGylated FVIII.

A further assay deals with T1, murine CD22 (Mus musculus, UniProt P35329).
T1 sequence (P35329 22-868): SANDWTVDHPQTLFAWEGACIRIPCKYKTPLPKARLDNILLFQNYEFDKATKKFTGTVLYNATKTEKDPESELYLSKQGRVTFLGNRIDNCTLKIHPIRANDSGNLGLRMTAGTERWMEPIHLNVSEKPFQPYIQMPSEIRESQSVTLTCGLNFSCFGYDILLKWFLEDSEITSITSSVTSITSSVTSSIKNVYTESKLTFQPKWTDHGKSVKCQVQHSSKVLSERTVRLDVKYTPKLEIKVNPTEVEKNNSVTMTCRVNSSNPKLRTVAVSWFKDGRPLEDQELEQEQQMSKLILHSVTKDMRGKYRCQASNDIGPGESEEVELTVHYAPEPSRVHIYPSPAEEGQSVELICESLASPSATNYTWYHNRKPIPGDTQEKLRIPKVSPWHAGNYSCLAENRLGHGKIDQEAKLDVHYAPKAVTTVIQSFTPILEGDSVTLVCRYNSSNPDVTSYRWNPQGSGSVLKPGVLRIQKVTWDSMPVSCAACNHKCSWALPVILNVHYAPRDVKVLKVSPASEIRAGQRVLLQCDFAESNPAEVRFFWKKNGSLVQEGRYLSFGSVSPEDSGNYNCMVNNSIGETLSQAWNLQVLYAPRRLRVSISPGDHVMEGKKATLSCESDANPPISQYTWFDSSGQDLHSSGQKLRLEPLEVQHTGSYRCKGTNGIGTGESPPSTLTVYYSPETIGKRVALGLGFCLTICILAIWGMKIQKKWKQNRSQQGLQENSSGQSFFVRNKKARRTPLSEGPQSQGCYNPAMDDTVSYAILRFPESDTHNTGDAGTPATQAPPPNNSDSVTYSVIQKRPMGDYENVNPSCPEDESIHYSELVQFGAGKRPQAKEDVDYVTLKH
Conditions: vs NeuGcα2-6Galβ1-4GlcNAc; cited from earlier work.

The target of a further assay is T2, Siglec-G (Mus musculus, UniProt Q80ZE3).
T2 sequence (Q80ZE3 18-688): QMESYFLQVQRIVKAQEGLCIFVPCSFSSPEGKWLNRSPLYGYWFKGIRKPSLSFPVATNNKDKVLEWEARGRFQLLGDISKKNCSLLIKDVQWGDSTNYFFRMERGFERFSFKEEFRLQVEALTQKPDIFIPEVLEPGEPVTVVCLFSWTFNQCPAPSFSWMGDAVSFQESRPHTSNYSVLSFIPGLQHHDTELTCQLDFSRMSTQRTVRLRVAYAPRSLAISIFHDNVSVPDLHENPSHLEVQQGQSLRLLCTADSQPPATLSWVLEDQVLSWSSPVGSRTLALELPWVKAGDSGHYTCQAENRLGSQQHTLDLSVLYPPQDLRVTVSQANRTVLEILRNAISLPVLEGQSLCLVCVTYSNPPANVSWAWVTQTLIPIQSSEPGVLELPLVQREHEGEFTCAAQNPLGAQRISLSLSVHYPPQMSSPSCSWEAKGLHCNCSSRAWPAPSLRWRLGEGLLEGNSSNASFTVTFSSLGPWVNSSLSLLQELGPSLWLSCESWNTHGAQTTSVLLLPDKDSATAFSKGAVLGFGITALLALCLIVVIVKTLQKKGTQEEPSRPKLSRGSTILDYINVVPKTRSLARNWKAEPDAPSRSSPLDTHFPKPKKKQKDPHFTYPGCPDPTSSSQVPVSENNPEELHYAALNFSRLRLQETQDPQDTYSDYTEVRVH
Conditions: cited from earlier work.

human CD22, sequence (P20273 20-847): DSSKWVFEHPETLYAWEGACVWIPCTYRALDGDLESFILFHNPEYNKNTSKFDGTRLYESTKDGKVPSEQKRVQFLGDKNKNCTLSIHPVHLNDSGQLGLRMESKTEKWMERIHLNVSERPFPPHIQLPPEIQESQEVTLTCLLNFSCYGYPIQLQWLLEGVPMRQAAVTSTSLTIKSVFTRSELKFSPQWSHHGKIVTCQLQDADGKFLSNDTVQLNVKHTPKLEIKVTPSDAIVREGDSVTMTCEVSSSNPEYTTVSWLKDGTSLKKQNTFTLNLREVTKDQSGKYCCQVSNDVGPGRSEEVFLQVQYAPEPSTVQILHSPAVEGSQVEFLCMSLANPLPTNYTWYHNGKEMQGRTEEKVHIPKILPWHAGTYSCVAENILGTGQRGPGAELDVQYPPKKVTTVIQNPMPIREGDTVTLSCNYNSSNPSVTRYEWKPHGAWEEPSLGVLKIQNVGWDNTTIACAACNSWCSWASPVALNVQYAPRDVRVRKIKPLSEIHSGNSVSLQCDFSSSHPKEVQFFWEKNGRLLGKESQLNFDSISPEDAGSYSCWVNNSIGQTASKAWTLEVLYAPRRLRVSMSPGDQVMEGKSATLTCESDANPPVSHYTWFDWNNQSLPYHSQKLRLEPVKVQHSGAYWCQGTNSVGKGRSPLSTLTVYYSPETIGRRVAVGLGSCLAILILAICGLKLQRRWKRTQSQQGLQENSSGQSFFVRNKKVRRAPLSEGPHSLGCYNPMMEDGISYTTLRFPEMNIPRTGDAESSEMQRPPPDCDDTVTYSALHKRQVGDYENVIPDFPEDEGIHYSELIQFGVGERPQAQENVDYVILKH
Experimental for C57BL/6J mice: Immunization and Blood Collection: Whole blood (50 μL) was collected from mice via a retro-orbital bleed using heparinized capillary tubes (Fisher). Blood was centrifuged (17,000 rcf, 1 min) to collect the serum. Serum was either used immediately for ELISAs or stored at −20° C. […] Liposomes and cells were delivered via the lateral tail vein in a volume of 200 μL. For studies involving a challenge with soluble (non-liposomal) antigen, mice were injected with 200 μg of HEL dissolved in HBSS and delivered intraperitoneally or 1 μg of FVIII delivered intravenously.
ELISAs: Maxisorp plates (96-well; Thermo Fisher) were coated with 50 μL/well of the relevant protein at a concentration of between 10-100 μg/mL in PBS and left overnight at 4° C. […] The following day, the plates were washed twice in TBS-T (Tris-buffered saline blocked containing 0.1% Tween 20) and blocked for 1 hr at RT with 100 μL of assay diluent (TBS-T with 1% BSA). Washing of the plates was accomplished by submerging the entire plate into a basin of wash buffer the appropriate number of times. Serum was initially diluted between 20-10,000-fold and diluted in 2-3 fold serial dilutions eight times on the ELISA plate. Plates were incubated with serum (50 μL/well) for 1 hr at 37° C. after which the plates were washed four times in TBS-T. HRP-conjugated secondary antibodies (Santa Cruz Biotechnologies) were diluted 2000-fold in assay diluent and 50 μL was added to each well. After incubation for 1 hr at 37° C., the plates were washed five times in TBS-T. To develop the plate, 75 μL/well of TMB substrate (Thermo Fisher) was added. The plate was incubated at RT for 15 minutes and then 75 μL/well of 2N H2504 was added to quench the reaction. Plates were read at 450 nm using a spectrophotometer (Molecular Devices). The titer was defined as the endpoint titer, which was the dilution of serum that produced an absorbance 2-fold above background.
Liposomes: All liposomes were composed of a 60:35:5 molar ratio of distearoyl phosphatidylcholine (DSPC; Avanti Polar Lipids), cholesterol (Sigma), and pegylated lipids. […]

`CC(=O)NC1C(O)OC(CO)C(OC2OC(COC3(C(=O)O)CC(O)C(NC(=O)CO)C(C(O)C(O)CO)O3)C(O)C(O)C2O)C1O` (stereo not shown) [NeuGc, NeuGcα2-6Galβ1-4GlcNAc]: the “effect of ligand amount on liposomes on antibody production” value with C57BL/6J mice is “dose-dependent effect on antibody production”.
With “9-N-biphenylcarboxyl-NeuAca2-6Galβ3-4GlcNAc [^BPCNeuAc]”, the “affinity for human CD22” value on human CD22 is listed as “high affinity”.
On to PEG6, for which, in the assay with FVIII deficient plasma, the “coagulation activity upon PEGylation” value is listed as “dramatic losses of coagulation activity”.
Take “9-N-biphenylacetyl-NeuGcα2-6Galβ1-4GlcNAc [^BPANeuGc]”: the “affinity for murine CD22 relative to natural ligand” value at murine CD22 is listed as 200 fold. The “cross-reactivity with Siglec-G” value on Siglec-G is “only a small degree of cross-reactivity”. In addition, the “effect of ligand amount on liposomes on antibody production” value with C57BL/6J mice is given as “dose-dependent effect on antibody production”. Moreover, the “difference in EC50 between the two ligands” value in the assay with C57BL/6J mice (^BPANeuGc vs NeuGc on tolerogenic HEL liposomes) is on record as “two orders of magnitude difference”.
